The source of these data is USRE38551E1, “Anticonvulsant enantiomeric amino acid derivatives” (priority 1996, dated 2004).

Holding throughout (format): in vivo
For data set [1], the system named is maximal electroshock (MES) induced seizure. The data set can be described thus: maximal electroshock (MES) seizure test, rats (po). Conditions: for ED50: Rattus norvegicus. An excerpt: (§1) Compounds were screened for anticonvulsant activity in both male albino Carthworth Farms No. 1 mice (ip route) and male albino Sprague Dawley rats [oral (po) route]. Activity was established using the electrical (maximal electroshock or MES) test. In the MES test, a drop of electrolyte solution with anesthetic (0.5% butacaine hemisulfate in 0.9% sodium chloride) was used in the eyes of the animals prior to positioning the corneal electrodes and delivery of current. […] Protection endpoints were defined as the abolition of the hind limb tonic extensor component of the induced seizure. In mice, effects of compounds on forced spontaneous motor activity were determined using the rotorod test. […] Normally under these conditions, mice maintain their balance almost indefinitely. In rats, motor impairment is assessed by observing for overt evidence of ataxia, abnormal gait and stance, and/or loss of placing response and muscle tone. In the mouse identification screening study all compounds were given at three dose levels (30, 100, 300 mg/kg) and two time periods (0.5 hours, 4 hours). Typically, in the MES seizures test one animal was tested at 30 mg/kg and 300 mg/kg, and three animals at 100 mg/kg. In the rotored toxicity test four animals were tested at 30 mg/kg, and 300 mg/kg, and eight animals at 100 mg/kg.
(§2) The quantitative determination of the median effective (ED50) and toxic doses (TD50) was conducted at previously calculated times of peak effect. Groups of at least eight animals were tested using different doses of test compound until at least two points wee determined between 100 and 0% protection and minimal motor impairment.
A general note: In the maximal electroshock model the usual endpoint is tonic extension of the hind limbs.

A short description of data set [2]: motor impairment (ataxia, gait, stance) observation, rats (po). Conditions: male, Sprague Dawley, in vivo, rat. An excerpt: (§3) Compounds were screened for anticonvulsant activity in both male albino Carthworth Farms No. 1 mice (ip route) and male albino Sprague Dawley rats [oral (po) route]. Activity was established using the electrical (maximal electroshock or MES) test. In the MES test, a drop of electrolyte solution with anesthetic (0.5% butacaine hemisulfate in 0.9% sodium chloride) was used in the eyes of the animals prior to positioning the corneal electrodes and delivery of current. A 60 cycle alternating current was administered for 0.2 sec. in both species, 50 mA in mice and 150 mA in rats. Protection endpoints were defined as the abolition of the hind limb tonic extensor component of the induced seizure. In mice, effects of compounds on forced spontaneous motor activity were determined using the rotorod test. […] Normally under these conditions, mice maintain their balance almost indefinitely. In rats, motor impairment is assessed by observing for overt evidence of ataxia, abnormal gait and stance, and/or loss of placing response and muscle tone. In the mouse identification screening study all compounds were given at three dose levels (30, 100, 300 mg/kg) and two time periods (0.5 hours, 4 hours). Typically, in the MES seizures test one animal was tested at 30 mg/kg and 300 mg/kg, and three animals at 100 mg/kg. In the rotored toxicity test four animals were tested at 30 mg/kg, and 300 mg/kg, and eight animals at 100 mg/kg.
(§4) The quantitative determination of the median effective (ED50) and toxic doses (TD50) was conducted at previously calculated times of peak effect. Groups of at least eight animals were tested using different doses of test compound until at least two points wee determined between 100 and 0% protection and minimal motor impairment. The dose of candidate substance required to produce the defined end-point in 50% of the animals in each test and the 95% confidence interval was calculated.

Data set [3] relates to maximal electroshock (MES) induced seizure. Description: maximal electroshock (MES) seizure test, mice (ip). The note with it: for ED50: Mus musculus.
Description: as §1, §2

The test system of the next data set is motor impairment. The data set can be described thus: motor impairment (ataxia, gait, stance) observation, rats (po).
Description: as §3, §4

Setting [4] is: rat, po, at time of peak effect.

The ED50 is the dose at which the effect has come halfway, by size or by number of responders. As a reminder, the TD50 is the 50% point of the dose-response relation for the toxic effect studied.

For the compound `CC(=O)NC(C)C(=O)NCc1ccccc1` (racemic) [compound 1, N-Acetyl-D,L-alanine-N′-benzylamide], the ED50 is 24.2 mg/kg in data set [1] (po, read-out: MES, ED50); 48.2 mg/kg in data set [1] (po, read-out: RAT anticonvulsant ED50 MES); greater than 1000 mg/kg in data set [2] (oral (Table 6), read-out: RAT ED50 Neurotox); 76.5 mg/kg in data set [3] (ip, read-out: MES, ED50); 76.5 mg/kg in data set [3] (ip, read-out: MOUSE anticonvulsant dose ED50 MES). Also, the “Ratio to MES” value was determined as 20.8 in data set [1] (rat, oral, Neurotox/MES (Table 6)) and 5.9 in data set [3] (mouse, i.p., Neurotox/MES (Table 6)). The “PI protective index (TD50/MES ED50)” value in data set [1] (rat, po) was greater than 20.8; in data set [3] (mice, ip) it was 5.9. Moreover, the TD50 in data set [2] (po, at time of peak effect, read-out: tox, TD50) was greater than 1000 mg/kg.
As to `COC[C@@H](NC(C)=O)C(=O)NCc1ccccc1` [Ex. 1, 2, (R)-N-Benzyl-2-Acetamide-3-methoxypropionamide], in data set [1] (rat, oral (Table 6)), the “RAT anticonvulsant ED50 MES” value came to 3.90 mg/kg. The “MES, ED50” value in data set [1] (setting [4]) was 3.9 [0.5] mg/kg; in data set [3] (mice, ip, at time of peak effect (hours in brackets)) it was 4.5 [0.5] mg/kg. In addition, the “RAT ED50 Neurotox” value in the data set with motor impairment (oral (Table 6)) is greater than 500 mg/kg. Further, the “tox, TD50” value in the data set with motor impairment (setting [4]) was >500 [0.5] mg/kg. The “MOUSE anticonvulsant dose ED50 MES” value in data set [3] (mouse, i.p. (Table 6)) amounted to 4.46 mg/kg.
